Tested on: RSV strain A2
Experiment: RSV antiviral cytoprotection assay in Hep2 cells (96-well and 384-well format, Cell TiterGlo read-out)
Format: cell-based, Respiratory Syncytial Virus (RSV)
Details: human respiratory syncytial virus; for inhibition at 0.5 µM: HEp-2, 0.5 uM, RSV-induced cytopathic effect in Hep2 cells, calculated from fitted dose response curve, normalized to 0% and 100%; for EC50: HEp-2, RSV-induced cytopathic effects, Hep2 cells, class symbols

| Structure (SMILES) | EC50 [nM] | inhibition at 0.5 µM [%] |
| --- | --- | --- |
| CS(=O)(=O)Nc1ccc(Cl)cc1C(=O)N1CCCC[C@H]1c1cc2nc(N3CCC3)cc(N3CCN[C@@H](C(F)F)C3)n2n1 [Compound 253] | 0.1 to 100 | 88 |
| Cc1cn2nc([C@@H]3CCCCN3C(=O)c3cnco3)cc2nc1N1CC[C@H](N)C1 [Compound 259] | 1000 to 10000 | 28 |
| Cc1cn2nc([C@@H]3CCCCN3C(=O)c3cccn3C)cc2nc1N1CC[C@H](N)C1 [Compound 261] | 101 to 1000 | 81 |
| Cc1cc(C(=O)N2CCCC[C@H]2c2cc3nc(N4CC[C@H](N)C4)c(C)cn3n2)no1 [Compound 264] | 101 to 1000 | 53 |
| Cc1cn2nc([C@@H]3CCCCN3C(=O)c3nccs3)cc2nc1N1CC[C@H](N)C1 [Compound 268] | 101 to 1000 | 76 |
| Cc1cn2nc([C@@H]3CCCCN3C(=O)c3cscn3)cc2nc1N1CC[C@H](N)C1 [Compound 270] | 101 to 1000 | 82 |
| Cc1cn2nc([C@@H]3CCCCN3C(=O)c3cncnc3N)cc2nc1N1CC[C@H](N)C1 [Compound 276] | 101 to 1000 | 90 |
| Cc1cn2nc([C@@H]3CCCCN3C(=O)c3cnn(C)c3C)cc2nc1N1CC[C@H](N)C1 [Compound 279] | 101 to 1000 | 63 |
| Cc1cn2nc([C@@H]3CCCCN3C(=O)c3cc(C)n(C)n3)cc2nc1N1CC[C@H](N)C1 [Compound 280] | 101 to 1000 | 60 |
| CCn1cc(C(=O)N2CCCC[C@H]2c2cc3nc(N4CC[C@H](N)C4)c(C)cn3n2)cn1 [Compound 281] | 101 to 1000 | 37 |
| Cc1cn2nc([C@@H]3CCCCN3C(=O)c3scnc3C)cc2nc1N1CC[C@H](N)C1 [Compound 287] | 1000 to 10000 |  |
| Cc1ccc(O)cc1C(=O)N1CCCC[C@H]1c1cc2nc(N3CC[C@H](N)C3)c(C)cn2n1 [Compound 292] | 101 to 1000 | 59 |
| Cc1ccc(C(=O)N2CCCC[C@H]2c2cc3nc(N4CC[C@H](N)C4)c(C)cn3n2)c(O)c1 [Compound 293] | 101 to 1000 | 64 |
| Cc1ccc(C(=O)N2CCCC[C@H]2c2cc3nc(N4CC[C@H](N)C4)c(C)cn3n2)cc1O [Compound 294] | 1000 to 10000 | 14 |
| Cc1cn2nc([C@@H]3CCCCN3C(=O)c3n[nH]c4c3CCC4)cc2nc1N1CC[C@H](N)C1 [Compound 296] | 101 to 1000 | 49 |
| Cc1cn2nc([C@@H]3CCCCN3C(=O)c3cc(C4CC4)[nH]n3)cc2nc1N1CC[C@H](N)C1 [Compound 297] | 0.1 to 100 | 95 |
| Cc1ccc(C(=O)N2CCCC[C@H]2c2cc3nc(N4CC[C@H](N)C4)c(C)cn3n2)c(F)c1 [Compound 298] | 101 to 1000 | 21 |

| Structure (SMILES) | EC50 [nM] | inhibition at 0.5 µM [%] |
| --- | --- | --- |
| CCCn1nccc1C(=O)N1CCCC[C@H]1c1cc2nc(N3CC[C@H](N)C3)c(C)cn2n1 [Compound 300] | 0.1 to 100 | 99 |
| CCn1nc(C(=O)N2CCCC[C@H]2c2cc3nc(N4CC[C@H](N)C4)c(C)cn3n2)cc1C [Compound 301] | 0.1 to 100 | 100 |
| CCn1nc(C)cc1C(=O)N1CCCC[C@H]1c1cc2nc(N3CC[C@H](N)C3)c(C)cn2n1 [Compound 302] | 0.1 to 100 | 100 |
| CCc1cc(C(=O)N2CCCC[C@H]2c2cc3nc(N4CC[C@H](N)C4)c(C)cn3n2)n(C)n1 [Compound 303] | 0.1 to 100 | 100 |
| CCc1ccc(C(=O)N2CCCC[C@H]2c2cc3nc(N4CC[C@H](N)C4)c(C)cn3n2)s1 [Compound 304] | 0.1 to 100 | 100 |
| Cc1cn2nc([C@@H]3CCCCN3C(=O)c3cccc(Cl)n3)cc2nc1N1CC[C@H](N)C1 [Compound 305] | 0.1 to 100 | 100 |
| Cc1cn2nc([C@@H]3CCCCN3C(=O)c3cncc(Cl)c3)cc2nc1N1CC[C@H](N)C1 [Compound 306] | 0.1 to 100 | 100 |
| Cc1cn2nc([C@@H]3CCCCN3C(=O)c3cccc(F)c3F)cc2nc1N1CC[C@H](N)C1 [Compound 307] | 0.1 to 100 | 100 |
| COc1ccsc1C(=O)N1CCCC[C@H]1c1cc2nc(N3CC[C@H](N)C3)c(C)cn2n1 [Compound 308] | 0.1 to 100 | 100 |
| Cc1cn2nc([C@@H]3CCCCN3C(=O)c3cnc(Cl)cn3)cc2nc1N1CC[C@H](N)C1 [Compound 309] | 0.1 to 100 | 100 |
| Cc1cn2nc([C@@H]3CCCCN3C(=O)c3ncc(F)cc3F)cc2nc1N1CC[C@H](N)C1 [Compound 310] | 0.1 to 100 | 100 |
| Cc1cn2nc([C@@H]3CCCCN3C(=O)c3cn4ccccc4n3)cc2nc1N1CC[C@H](N)C1 [Compound 311] | 0.1 to 100 | 100 |
| Cc1cn2nc([C@@H]3CCCCN3C(=O)c3cc4ccccn4n3)cc2nc1N1CC[C@H](N)C1 [Compound 312] | 0.1 to 100 | 100 |
| Cc1cn2nc([C@@H]3CCCCN3C(=O)c3ccc(C4CC4)cc3)cc2nc1N1CC[C@H](N)C1 [Compound 313] | 0.1 to 100 | 100 |
| Cc1cn2nc([C@@H]3CCCCN3C(=O)c3sccc3Cl)cc2nc1N1CC[C@H](N)C1 [Compound 314] | 0.1 to 100 | 100 |
| Cc1cn2nc([C@@H]3CCCCN3C(=O)c3cc4ncccn4n3)cc2nc1N1CC[C@H](N)C1 [Compound 315] | 0.1 to 100 | 100 |

Second part, led by results:

| EC50 [nM] | Structure (SMILES) | inhibition at 0.5 µM [%] |
| --- | --- | --- |
| 0.1 to 100 | CS(=O)(=O)Nc1ccc(Cl)cc1C(=O)N1CCCC[C@H]1c1cc2nc(N3CCC3)cc(CO)n2n1 [Compound 254] | 90 |
| 0.1 to 100 | CS(=O)(=O)Nc1ccc(Cl)cc1C(=O)N1CCCC[C@H]1c1cc2nc(N3CCC3)cc(CN3CCOCC3)n2n1 [Compound 256] | 87 |
| 0.1 to 100 | Cc1cn2nc([C@@H]3CCCCN3C(=O)c3ccco3)cc2nc1N1CC[C@H](N)C1 [Compound 258] | 100 |
| 0.1 to 100 | Cc1cn2nc([C@@H]3CCCCN3C(=O)c3cnccn3)cc2nc1N1CC[C@H](N)C1 [Compound 260] | 99 |
| 0.1 to 100 | Cc1cc(C(=O)N2CCCC[C@H]2c2cc3nc(N4CC[C@H](N)C4)c(C)cn3n2)[nH]n1 [Compound 262] | 100 |
| 0.1 to 100 | Cc1cn2nc([C@@H]3CCCCN3C(=O)c3ccnn3C)cc2nc1N1CC[C@H](N)C1 [Compound 263] | 99 |
| 0.1 to 100 | Cc1cn2nc([C@@H]3CCCCN3C(=O)c3ocnc3C)cc2nc1N1CC[C@H](N)C1 [Compound 265] | 100 |
| 0.1 to 100 | Cc1cc(C(=O)N2CCCC[C@H]2c2cc3nc(N4CC[C@H](N)C4)c(C)cn3n2)on1 [Compound 266] | 100 |
| 0.1 to 100 | Cc1cn2nc([C@@H]3CCCCN3C(=O)c3ccsc3)cc2nc1N1CC[C@H](N)C1 [Compound 267] | 99 |
| 0.1 to 100 | Cc1cn2nc([C@@H]3CCCCN3C(=O)c3cncs3)cc2nc1N1CC[C@H](N)C1 [Compound 269] | 90 |
| 0.1 to 100 | Cc1cn2nc([C@@H]3CCCCN3C(=O)c3csnn3)cc2nc1N1CC[C@H](N)C1 [Compound 271] | 97 |
| 0.1 to 100 | Cc1ccnc(C(=O)N2CCCC[C@H]2c2cc3nc(N4CC[C@H](N)C4)c(C)cn3n2)c1 [Compound 272] | 100 |
| 0.1 to 100 | Cc1cccc(C(=O)N2CCCC[C@H]2c2cc3nc(N4CC[C@H](N)C4)c(C)cn3n2)n1 [Compound 273] | 100 |
| 0.1 to 100 | Cc1cn2nc([C@@H]3CCCCN3C(=O)c3ccccc3O)cc2nc1N1CC[C@H](N)C1 [Compound 274] | 100 |
| 0.1 to 100 | Cc1cn2nc([C@@H]3CCCCN3C(=O)c3cccnc3N)cc2nc1N1CC[C@H](N)C1 [Compound 275] | 100 |
| 0.1 to 100 | Cc1cn2nc([C@@H]3CCCCN3C(=O)c3ccccc3F)cc2nc1N1CC[C@H](N)C1 [Compound 277] | 98 |
| 0.1 to 100 | CCn1nccc1C(=O)N1CCCC[C@H]1c1cc2nc(N3CC[C@H](N)C3)c(C)cn2n1 [Compound 278] | 99 |
| 0.1 to 100 | Cc1cn2nc([C@@H]3CCCCN3C(=O)c3cccnc3F)cc2nc1N1CC[C@H](N)C1 [Compound 282] | 100 |
| 0.1 to 100 | Cc1cn2nc([C@@H]3CCCCN3C(=O)c3onc(C)c3C)cc2nc1N1CC[C@H](N)C1 [Compound 283] | 99.8 |
| 0.1 to 100 | CCc1ocnc1C(=O)N1CCCC[C@H]1c1cc2nc(N3CC[C@H](N)C3)c(C)cn2n1 [Compound 284] | 97.8 |
| 0.1 to 100 | Cc1cn2nc([C@@H]3CCCCN3C(=O)c3nnn(C)c3C)cc2nc1N1CC[C@H](N)C1 [Compound 285] | 100 |
| 0.1 to 100 | Cc1ccc(C(=O)N2CCCC[C@H]2c2cc3nc(N4CC[C@H](N)C4)c(C)cn3n2)s1 [Compound 286] | 100 |
| 0.1 to 100 | Cc1nc(C(=O)N2CCCC[C@H]2c2cc3nc(N4CC[C@H](N)C4)c(C)cn3n2)cs1 [Compound 288] | 100 |
| 0.1 to 100 | C#Cc1cccc(C(=O)N2CCCC[C@H]2c2cc3nc(N4CC[C@H](N)C4)c(C)cn3n2)c1 [Compound 289] | 100 |
| 0.1 to 100 | Cc1cn2nc([C@@H]3CCCCN3C(=O)c3ccc(C#N)cn3)cc2nc1N1CC[C@H](N)C1 [Compound 290] |  |
| 0.1 to 100 | Cc1cn2nc([C@@H]3CCCCN3C(=O)c3ccccc3CO)cc2nc1N1CC[C@H](N)C1 [Compound 291] | 88 |
| 0.1 to 100 | COc1cccc(C(=O)N2CCCC[C@H]2c2cc3nc(N4CC[C@H](N)C4)c(C)cn3n2)c1 [Compound 295] | 97 |

Reference: patent US9238039B2, “Pyrazolo[1,5-A]pyrimidines for antiviral treatment” (Gilead Sciences, Inc., priority 2010, dated 2016)
